Values joined by “and” are separate entries in the source; they are usually repeats but may differ in a detail not shown here. Equal entries are not always repeated. Structures can show the parent of a compound that is named as a salt. Where two headings read alike, the source gives them in different places.
How the values were obtained:
[1] = target: α2 adrenoceptors (striatum, α2A and α2C); test: [3H]RX821002 binding; parameters: species or system sheep
D2-like receptor D2L = conditions: read-out: EC50 values, G protein activation, across Gi/o protein subtypes; cited from earlier work
[2] = target: α2 adrenoceptors (cortex, mostly α2A) (Ovis aries, UniProt A0ACI6PY47); test: [3H]RX821002 binding; parameters: species or system sheep
α2A adrenoceptor [3] = target: T1, α2A adrenoceptor (Homo sapiens, UniProt P08913); test: G protein activation BRET assay in transfected HEK-293T cells; assay type: cell-based; conditions: for EC50: read-out: Potency (EC50) G protein activation
T1 sequence (P08913 1-465): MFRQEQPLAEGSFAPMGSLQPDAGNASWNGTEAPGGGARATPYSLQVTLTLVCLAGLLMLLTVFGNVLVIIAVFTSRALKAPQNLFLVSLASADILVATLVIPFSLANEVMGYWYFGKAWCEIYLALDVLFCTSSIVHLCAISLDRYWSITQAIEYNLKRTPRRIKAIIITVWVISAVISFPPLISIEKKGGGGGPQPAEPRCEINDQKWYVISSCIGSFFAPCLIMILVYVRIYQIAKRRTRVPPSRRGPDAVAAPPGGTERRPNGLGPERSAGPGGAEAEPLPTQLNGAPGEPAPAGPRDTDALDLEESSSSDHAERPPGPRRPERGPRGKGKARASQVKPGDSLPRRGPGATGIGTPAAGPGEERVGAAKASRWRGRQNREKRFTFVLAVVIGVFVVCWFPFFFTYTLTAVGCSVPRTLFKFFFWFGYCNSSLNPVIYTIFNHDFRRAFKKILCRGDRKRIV

α2C adrenoceptor [4] = target: T2, α2C adrenoceptor (Homo sapiens, UniProt P18825); test: as above; assay type: cell-based
T2 sequence (P18825 1-462): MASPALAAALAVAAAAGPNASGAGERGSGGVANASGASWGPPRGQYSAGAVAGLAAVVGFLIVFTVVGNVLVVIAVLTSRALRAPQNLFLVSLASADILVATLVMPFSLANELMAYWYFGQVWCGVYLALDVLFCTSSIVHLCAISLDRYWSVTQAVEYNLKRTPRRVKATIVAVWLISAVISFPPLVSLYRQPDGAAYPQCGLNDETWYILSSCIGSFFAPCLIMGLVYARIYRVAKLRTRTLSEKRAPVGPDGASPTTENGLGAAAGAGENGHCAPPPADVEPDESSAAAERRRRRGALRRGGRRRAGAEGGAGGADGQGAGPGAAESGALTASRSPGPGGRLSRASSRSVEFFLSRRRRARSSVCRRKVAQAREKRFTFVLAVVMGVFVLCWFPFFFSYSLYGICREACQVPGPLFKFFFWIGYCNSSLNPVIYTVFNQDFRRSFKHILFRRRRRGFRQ

α2A adrenoceptor [5] = target: T1, α2A adrenoceptor; test: DMR label-free assay in CHO cells transfected with α2A-RLuc8 receptor; assay type: cell-based; conditions: for DMR response: at 300 nM, Fig. 6 legend: 100 nM
α2A adrenoceptor [6] = target: T1, α2A adrenoceptor; test: ERK1/2 phosphorylation in CHO cells transfected with α2A-RLuc8 receptor; assay type: cell-based; conditions: 5 minutes; for MAPK activation (ERK1/2 phosphorylation): 1 μM
α2A adrenoceptor [7] = target: T1, α2A adrenoceptor
α2C adrenoceptor [8] = target: T2, α2C adrenoceptor
α2C adrenoceptor [9] = target: T2, α2C adrenoceptor; test: cell-based
D2-like receptors = D2-like receptors (Ovis aries, UniProt A0ACI6R699); test: [3H]YM-09151-2 competition binding, sheep brain striatum; conditions: sheep striatal membranes; any concentration up to 10 μM
human D2 receptor = human D2 receptor (Homo sapiens, UniProt P14416); assay type: binding; conditions: HEK-293T membranes, up to 10 μM; data not shown
human D3 receptor = human D3 receptor (Homo sapiens, UniProt P35462); assay type: binding; conditions: HEK-293T membranes, up to 10 μM; data not shown
human D4 receptor = target: T3, human D4 receptor (Homo sapiens, UniProt P21917); assay type: binding; conditions: HEK-293T membranes, up to 10 μM; data not shown
T3 sequence (P21917 1-419): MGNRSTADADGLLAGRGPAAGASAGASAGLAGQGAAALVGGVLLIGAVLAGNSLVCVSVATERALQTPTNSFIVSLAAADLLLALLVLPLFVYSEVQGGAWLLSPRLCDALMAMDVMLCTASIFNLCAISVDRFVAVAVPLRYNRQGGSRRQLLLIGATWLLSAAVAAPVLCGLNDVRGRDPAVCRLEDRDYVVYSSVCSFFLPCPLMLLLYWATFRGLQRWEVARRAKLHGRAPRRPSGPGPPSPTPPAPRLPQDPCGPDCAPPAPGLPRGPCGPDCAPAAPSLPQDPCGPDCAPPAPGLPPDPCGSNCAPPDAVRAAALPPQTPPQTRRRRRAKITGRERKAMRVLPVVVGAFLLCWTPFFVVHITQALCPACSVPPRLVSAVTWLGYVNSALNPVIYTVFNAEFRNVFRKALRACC

[10] = read-out: KDB1, striatum, vs [3H]RX821002, two-state dimer model, first protomer
[11] = read-out: KDB2, striatum, vs [3H]RX821002, two-state dimer model, second protomer
[12] = read-out: KDB1, cortex, vs [3H]RX821002, two-state dimer model, first protomer
[13] = read-out: KDB2, cortex, vs [3H]RX821002, two-state dimer model, second protomer

human D3 receptor, sequence (P35462 whole entry): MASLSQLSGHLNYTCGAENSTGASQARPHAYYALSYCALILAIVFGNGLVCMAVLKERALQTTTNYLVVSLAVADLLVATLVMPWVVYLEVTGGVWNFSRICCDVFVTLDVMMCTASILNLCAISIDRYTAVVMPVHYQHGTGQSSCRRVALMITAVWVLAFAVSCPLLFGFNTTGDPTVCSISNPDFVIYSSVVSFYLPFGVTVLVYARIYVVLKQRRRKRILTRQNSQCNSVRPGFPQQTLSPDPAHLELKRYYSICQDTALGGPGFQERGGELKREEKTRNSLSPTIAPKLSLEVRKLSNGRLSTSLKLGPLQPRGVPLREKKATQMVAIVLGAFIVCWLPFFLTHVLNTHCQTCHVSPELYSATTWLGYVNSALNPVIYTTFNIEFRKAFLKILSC
human D2 receptor, sequence (P14416 whole entry): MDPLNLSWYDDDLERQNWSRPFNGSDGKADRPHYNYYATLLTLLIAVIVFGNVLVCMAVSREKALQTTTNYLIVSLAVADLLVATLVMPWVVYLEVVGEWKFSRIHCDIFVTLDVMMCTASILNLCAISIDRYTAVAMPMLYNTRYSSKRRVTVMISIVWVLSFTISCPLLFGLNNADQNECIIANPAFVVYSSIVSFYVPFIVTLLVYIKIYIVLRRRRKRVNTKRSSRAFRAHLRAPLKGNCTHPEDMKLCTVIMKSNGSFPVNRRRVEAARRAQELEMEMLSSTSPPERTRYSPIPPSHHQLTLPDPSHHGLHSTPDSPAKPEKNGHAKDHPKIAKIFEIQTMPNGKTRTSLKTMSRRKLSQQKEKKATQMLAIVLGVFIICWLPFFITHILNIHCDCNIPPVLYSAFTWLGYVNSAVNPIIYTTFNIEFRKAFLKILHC

## NCCc1ccc(O)c(O)c1 [DA, Dopamine hydrochloride]
[1]; [10]
  Kd: 6 nM
[1]; [11]
  Kd: 1000 nM
D2-like receptor D2L
  EC50: 130 to 400 nM

## CCCN(C/C=C/I)C1CCc2ccc(O)cc2C1 (stereo not shown) [7-OH-PIPAT, 7-OH-PIPAT maleate]
[2]; cortex, vs [3H]RX821002
  DCB (cooperativity index): DCB: -1.1
[2]; [12]
  Kd: 9 nM
[2]; [13]
  Kd: 430 nM
[1]; [10]
  Kd: 51 nM
α2A adrenoceptor [3]; Gαi1, α2A
  Efficacy (Emax) G protein activation: 94 ± 6 percentage of NE values
α2A adrenoceptor [3]; Gαi2, α2A
  Efficacy (Emax) G protein activation: 55 ± 2 percentage of NE values
α2A adrenoceptor [3]; Gαi3, α2A
  Efficacy (Emax) G protein activation: 71 ± 6 percentage of NE values
α2A adrenoceptor [3]; Gαo1, α2A
  Efficacy (Emax) G protein activation: 81 ± 9 percentage of NE values
  EC50: 100 ± 20 nM
α2A adrenoceptor [3]; Gαo2, α2A
  Efficacy (Emax) G protein activation: 85 ± 4 percentage of NE values
  EC50: 66 ± 7 nM
α2C adrenoceptor [4]; Gαi1, α2C, ND: not detectable
  Efficacy (Emax) G protein activation: 41 ± 1 percentage of NE values
α2C adrenoceptor [4]; Gαi2, α2C
  Efficacy (Emax) G protein activation: 90 ± 20 percentage of NE values
α2C adrenoceptor [4]; Gαi3, α2C
  Efficacy (Emax) G protein activation: 90 ± 10 percentage of NE values
α2C adrenoceptor [4]; Gαo1, α2C
  Efficacy (Emax) G protein activation: 98 ± 7 percentage of NE values
α2C adrenoceptor [4]; Gαo2, α2C
  Efficacy (Emax) G protein activation: 106 ± 3 percentage of NE values
α2C adrenoceptor [4]; read-out: Potency (EC50) G protein activation, Gαi3, α2C
  EC50: 5 ± 3 nM
α2A adrenoceptor [5]
  DMR response: significant response
α2A adrenoceptor [6]
  MAPK activation (ERK1/2 phosphorylation): able to produce MAPK activation

## CC1c2ccccc2CN1CC1=NCCN1 (stereo not shown) [BRL 44408]
α2A adrenoceptor [5]; BRL 44408 1 μM, 30 minutes pretreatment
  effect on DA and NE activation of DMR: decreased

## NC[C@H](O)c1ccc(O)c(O)c1 [NE, L-(-)-norepinephrine (+)-bitartrate salt monohydrate]
α2A adrenoceptor [3]; Gαi1, α2A
  Efficacy (Emax) G protein activation: 100 ± 5 percentage of NE values
α2A adrenoceptor [3]; Gαi2, α2A
  Efficacy (Emax) G protein activation: 100 ± 10 percentage of NE values
α2A adrenoceptor [3]; Gαi3, α2A
  Efficacy (Emax) G protein activation: 100 ± 10 percentage of NE values
α2A adrenoceptor [3]; Gαo1, α2A
  Efficacy (Emax) G protein activation: 100 ± 7 percentage of NE values
α2A adrenoceptor [3]; Gαo2, α2A
  Efficacy (Emax) G protein activation: 100 ± 9 percentage of NE values
α2C adrenoceptor [4]; Gαi1, α2C, ND: not detectable
  Efficacy (Emax) G protein activation: 100 ± 2 percentage of NE values
α2C adrenoceptor [4]; Gαi2, α2C
  Efficacy (Emax) G protein activation: 100 ± 7 percentage of NE values
α2C adrenoceptor [4]; Gαi3, α2C
  Efficacy (Emax) G protein activation: 100 ± 9 percentage of NE values
α2C adrenoceptor [4]; Gαo1, α2C
  Efficacy (Emax) G protein activation: 100 ± 10 percentage of NE values
α2C adrenoceptor [4]; Gαo2, α2C
  Efficacy (Emax) G protein activation: 100 ± 8 percentage of NE values
α2C adrenoceptor [4]; Potency (EC50) G protein activation, Gαi3, α2C
  EC50: 0.4 ± 0.2 nM
α2A adrenoceptor [6]; 300 nM
  increase of ERK1/2 phosphorylation levels: 3 fold over basal
α2A adrenoceptor [7]; at 10 and 100 μM
  Gs activation (inverted U-shaped curve, high ligand concentrations): promoted Gs activation
α2C adrenoceptor [8]; at 10 and 100 μM
  Gs activation (inverted U-shaped curve, high ligand concentrations): promoted Gs activation
α2C adrenoceptor [9]
  EC50: 7 ± 4 nM

## COC1(C2=NCCN2)COc2ccccc2O1 (stereo not shown) [[^3H]RX821002]
[2]; read-out: affinity value (KDA1) of the radioligand, saturation experiments, cortical tissue, n=4-8
  Kd: 0.06 ± 0.01 nM
[1]; read-out: affinity value (KDA1) of the radioligand, saturation experiments, striatal tissue, n=4-8
  Kd: 0.07 ± 0.01 nM

## Clc1cccc(Cl)c1N=C1NCCN1 [Clonidine, clonidine hydrochloride]
[1]; [10]
  Kd: 0.036 nM
[1]; [11]
  Kd: 20 nM
α2A adrenoceptor [3]
  Efficacy (Emax) G protein activation: 110 ± 10 percentage of NE values and 120 ± 2 percentage of NE values and 120 ± 5 percentage of NE values and 89 ± 6 percentage of NE values and 112 ± 8 percentage of NE values

## COC1(C2=NCCN2)COc2ccccc2O1 (stereo not shown) [RX821002]
D2-like receptors
  displacement of [3H]YM-09151-2 binding: did not displace
Human D2 receptor
  displacement of [3H]YM-09151-2 binding: identical results
Human D3 receptor
  displacement of [3H]YM-09151-2 binding: identical results
Human D4 receptor
  displacement of [3H]YM-09151-2 binding: identical results

## Cc1ncc(CN2CC=C(c3ccccc3)CC2)c(N)n1.Cl.Cl [RO-105824, RO-105824 dihydrochloride]
[2]; [12]
  Kd: 0.055 nM
[2]; [13]
  Kd: 4000 nM
[1]; [10]
  Kd: 0.42 nM
α2A adrenoceptor [3]; α2A, Gαi2 and Gαi3
  G protein activation (agonist effect): small efficacy
α2A adrenoceptor [3]; α2A, Gαi/o subtypes other than Gαi2 and Gαi3
  G protein activation (agonist effect): did not produce a significant activation
α2A adrenoceptor [3]; α2A, Gαo1
  inhibition of the agonistic effect of clonidine (1 μM): did counteract
α2C adrenoceptor [4]; α2C, Gαo1
  inhibition of the agonistic effect of clonidine (1 μM): did counteract
α2C adrenoceptor [4]; α2C, any of the Gαi/o subtypes
  G protein activation (agonist effect): did not produce a significant activation
α2A adrenoceptor [5]
  DMR response: substantially lower
α2A adrenoceptor [6]
  MAPK activation (ERK1/2 phosphorylation): able to produce MAPK activation

## COC(=O)[C@@H]1[C@H]2C[C@H]3c4[nH]c5ccccc5c4CCN3C[C@@H]2CC[C@@H]1O [yohimbine, yohimbine hydrochloride]
α2A adrenoceptor [3]
  blockade of Gαo1 activation induced by 10 μM 7-OH-PIPAT or 10 μM quinpirole: completely blocked
α2C adrenoceptor [4]
  blockade of Gαo1 activation induced by 10 μM 7-OH-PIPAT or 10 μM quinpirole: completely blocked
α2A adrenoceptor [7]; yohimbine 10 μM
  blockade of Gi/o-dependent effects of NE and DA on adenylyl cyclase: blocked
α2C adrenoceptor [8]; yohimbine 10 μM
  blockade of Gi/o-dependent effects of NE and DA on adenylyl cyclase: blocked

— publication PMC6143434 (Molecular neurobiology, 2018)
